For 38 molecules, IC50, half-life and Ki results are on record in ChEMBL document CHEMBL4177521, “Therapeutic Potential of Fatty Acid Amide Hydrolase, Monoacylglycerol Lipase, and N-Acylethanolamine Acid Amidase Inhibitors” (J Med Chem, 2017).

The term pIC50 denotes −log10 of the IC50, conventionally taken in molar units. The half-life is the time needed for the level to fall by half in the phase considered. High values mean slow decline, low ones rapid decline. Broadly, the pKi is −log10 of the Ki, conventionally taken in molar units.

Series [1] deals with T1, N-acylethanolamine-hydrolyzing acid amidase (Homo sapiens, UniProt Q02083).
T1 sequence (Q02083 whole entry): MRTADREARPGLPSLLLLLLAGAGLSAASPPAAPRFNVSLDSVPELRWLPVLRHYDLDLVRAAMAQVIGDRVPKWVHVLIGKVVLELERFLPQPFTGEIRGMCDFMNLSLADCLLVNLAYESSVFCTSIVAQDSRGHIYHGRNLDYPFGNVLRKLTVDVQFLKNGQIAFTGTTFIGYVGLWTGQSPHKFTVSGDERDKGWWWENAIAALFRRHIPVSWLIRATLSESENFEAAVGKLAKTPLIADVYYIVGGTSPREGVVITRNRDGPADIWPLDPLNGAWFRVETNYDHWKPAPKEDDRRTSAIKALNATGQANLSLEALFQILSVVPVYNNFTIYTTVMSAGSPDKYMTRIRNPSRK
As to the kind of experiment: Inhibition of recombinant human NAAA expressed in HEK293 cells preincubated for 10 mins followed by PAMCA substrate addition after 30 mins by fluorescence assay. It counts as cell-based.

Series [2] is described as follows: Half life in mouse plasma. Format: ADME, cell-free.
In series [3] the target is T2, Monoglyceride lipase (Mus musculus, UniProt O35678).
T2 sequence (O35678 whole entry): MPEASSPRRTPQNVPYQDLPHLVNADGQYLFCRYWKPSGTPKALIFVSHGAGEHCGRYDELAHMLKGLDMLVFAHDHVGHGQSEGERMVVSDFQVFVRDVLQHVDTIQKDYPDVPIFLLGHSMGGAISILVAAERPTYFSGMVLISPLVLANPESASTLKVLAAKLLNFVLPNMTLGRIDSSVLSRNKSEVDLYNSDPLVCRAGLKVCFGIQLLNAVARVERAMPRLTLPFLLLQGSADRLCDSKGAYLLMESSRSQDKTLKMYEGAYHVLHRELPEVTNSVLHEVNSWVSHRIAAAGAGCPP
The series can be described thus: Inhibition of mouse MAGL preincubated for 30 mins followed by FP-Rh addition after 30 mins by gel-based ABPP assay.

Series [4] addresses T3, Monoglyceride lipase (Rattus norvegicus, UniProt Q8R431).
T3 sequence (Q8R431 whole entry): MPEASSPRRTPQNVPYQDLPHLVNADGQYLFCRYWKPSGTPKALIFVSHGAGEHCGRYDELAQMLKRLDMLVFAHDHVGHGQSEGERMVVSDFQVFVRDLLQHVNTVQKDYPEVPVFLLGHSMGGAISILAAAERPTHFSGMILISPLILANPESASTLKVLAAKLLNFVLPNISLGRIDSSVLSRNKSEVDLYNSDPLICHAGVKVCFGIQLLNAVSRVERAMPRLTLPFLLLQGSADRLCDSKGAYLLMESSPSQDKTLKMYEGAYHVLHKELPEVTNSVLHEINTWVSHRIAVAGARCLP
The series can be described thus: Inhibition of rat MAGL preincubated for 30 mins followed by FP-Rh addition after 30 mins by gel-based ABPP assay.

The nature of series [5]: Half life in rat plasma at 3 uM by LC/MS analysis. It counts as ADME, cell-free.
In series [6] the target is T4, Fatty-acid amide hydrolase 1 (Rattus norvegicus, UniProt P97612).
T4 sequence (P97612 whole entry): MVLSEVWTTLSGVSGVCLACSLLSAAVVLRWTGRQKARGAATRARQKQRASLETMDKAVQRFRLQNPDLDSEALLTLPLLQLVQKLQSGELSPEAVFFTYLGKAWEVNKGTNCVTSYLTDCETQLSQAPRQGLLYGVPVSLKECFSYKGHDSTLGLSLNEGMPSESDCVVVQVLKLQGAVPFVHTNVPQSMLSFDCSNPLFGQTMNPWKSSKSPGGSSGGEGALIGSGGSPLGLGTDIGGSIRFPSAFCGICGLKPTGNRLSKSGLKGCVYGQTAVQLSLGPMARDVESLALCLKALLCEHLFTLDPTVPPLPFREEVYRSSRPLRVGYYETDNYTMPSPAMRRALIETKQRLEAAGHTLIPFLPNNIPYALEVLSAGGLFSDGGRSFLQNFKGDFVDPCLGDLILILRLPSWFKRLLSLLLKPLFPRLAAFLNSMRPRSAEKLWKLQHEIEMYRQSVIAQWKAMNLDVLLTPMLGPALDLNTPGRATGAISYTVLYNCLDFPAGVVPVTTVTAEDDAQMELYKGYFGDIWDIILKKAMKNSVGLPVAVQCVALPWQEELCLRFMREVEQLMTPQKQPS
The series can be described thus: Inhibition of FAAH in Wistar rat brain membranes using [3H]-anandamide as substrate preincubated for 10 mins followed by substrate addition measured after 4 mins by liquid scintillation counting method. It counts as cell membranes, Membrane.

In series [7] the target is T3, Monoglyceride lipase. As to the kind of experiment: Inhibition of recombinant rat N-terminal histidine tagged MAGL expressed in Escherichia coli Rosetta 2 (DE3) pLysS cells preincubated for 10 mins followed by 2-OG substrate addition after 10 mins by LC/MS analysis.
Series [8] deals with T3, Monoglyceride lipase. The series can be described thus: Inhibition of rat cerebellar membranes MAGL-like activity preincubated for 30 mins followed by 2-AG substrate addition after 90 mins by HPLC analysis. On the set-up: species or system Cerebellum, Membrane.
Series [9] has as its target T5, Monoglyceride lipase (Homo sapiens, UniProt Q99685).
T5 sequence (Q99685 whole entry): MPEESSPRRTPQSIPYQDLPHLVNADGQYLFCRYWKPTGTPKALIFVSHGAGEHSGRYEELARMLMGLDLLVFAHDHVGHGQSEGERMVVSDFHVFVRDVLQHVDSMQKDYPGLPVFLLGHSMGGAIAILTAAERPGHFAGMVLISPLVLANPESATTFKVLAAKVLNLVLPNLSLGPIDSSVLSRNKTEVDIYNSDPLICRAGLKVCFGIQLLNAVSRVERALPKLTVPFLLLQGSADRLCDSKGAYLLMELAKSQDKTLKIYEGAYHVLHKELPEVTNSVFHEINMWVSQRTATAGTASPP
The series can be described thus: Inhibition of recombinant human N-terminal His6-tagged and C-terminal Strep-tagged MAGL expressed in Escherichia coli Rosetta using [3H]2-OG as substrate after 10 mins by liquid scintillation counting method.

Series [10] has as its target T4, Fatty-acid amide hydrolase 1. The series can be described thus: Inhibition of rat brain microsomal FAAH using N-(2-hydroxyethyl)-4-pyren-1-yl-butanamide as substrate after 60 mins by RP HPLC based fluorescence assay.
The target in series [11] is T3, Monoglyceride lipase. The series can be described thus: Inhibition of recombinant rat MAGL expressed in Escherichia coli using 2-AG as substrate.
The target in series [12] is T4, Fatty-acid amide hydrolase 1. As to the kind of experiment: Inhibition of rat FAAH assessed as reduction in [14C]oleamide conversion to oleic acid by Lineweaver-Burk plot analysis.
Series [13] deals with T2, Monoglyceride lipase. The series can be described thus: Inhibition of mouse MAGL.
Series [14] deals with T3, Monoglyceride lipase. The series can be described thus: Inhibition of rat MAGL.
The target of series [15] is T4, Fatty-acid amide hydrolase 1. As to the kind of experiment: Inhibition of Sprague-Dawley rat brain FAAH preincubated for 10 mins followed by [3H]-anandamide substrate addition after 30 mins by liquid scintillation counting method.

pIC50, pKi: −log10 of the molar value.

For the molecule `O=C(CCCCCCC1CCCCC1)N[C@H]1CNC1=O`, the pIC50 in [1] is 6.55.

Take `O=C(CCc1ccccc1)N[C@H]1COC1=O`: the half-life in series [2] was less than 1 min.

`O=C(OC(C(F)(F)F)C(F)(F)F)N1CCC(C(O)(c2ccc3c(c2)OCO3)c2ccc3c(c2)OCO3)CC1`: the pIC50 against Monoglyceride lipase [3] is 7.82; at Monoglyceride lipase [4], 7.37.

On to `CC(C)(C)[C@@H]1OC(=O)[C@H]1NC(=O)OCCCCCc1ccccc1`, for which the half-life at 3 µM in series [5] is greater than 5 min. Besides, the pIC50 in series [1] is 6.63.

`O=C(NC1CCCCC1)Oc1ccc(O)c(-c2ccccc2)c1` had a pIC50 in [6] of 7.52.

With `CC(C)(C)[C@@H]1OC(=O)[C@H]1NC(=O)OCc1ccc(-c2ccccc2)cc1`, the half-life at 3 µM in series [5] is greater than 5 min. Besides, the pIC50 in series [1] is 6.29.

For the molecule `CCCCCCCC/C=C\CCCCCCCCn1sccc1=O`, the pIC50 at Monoglyceride lipase [7] was 7.37.

As to `O=C(NC1CCCCC1)Oc1cccc(-c2ccccc2)c1`, in [6], the pIC50 is 7.59.

As for `O=C1C=CC(=O)N1c1ccc2ccc3cccc4ccc1c2c34`, the pIC50 against Monoglyceride lipase [8] was 5.04.

On to `CCN(CC)C(=S)SSC(=S)N(CC)CC`, for which, on Monoglyceride lipase [9], the pIC50 is 6.44.

Take `O=C(NCCCCCCCCn1nnc(-c2ccccc2)n1)Oc1ccccc1`: in series [10], the pIC50 was 6.96.

As for `CC(C)=CCC[C@@H](C)[C@@H]1CCC[C@]2(C)C3=C(CC[C@@]12C)[C@@]1(C)CC[C@H](O)C(C)(C)[C@@H]1CC3`, on Monoglyceride lipase [11], the pIC50 was 6.50.

`CCCCCCCCn1sc2ccccc2c1=O`: the negative logarithm of the IC50 (pIC50) on Monoglyceride lipase [7] is 7.70.

As to `O=C(CCCCc1ccccc1)c1nc2ncccc2o1`, the pKi in series [12] was 9.52.

On to `CCCCCCCCCC(=O)N[C@H]1CNC1=O`, for which the pIC50 in [1] (hek293) is 6.62.

As for `CCN1C(=O)C=CC1=O` [N-ETHYLMALEIMIDE], at Monoglyceride lipase [8], the pIC50 is 4.28.

As to `COC(=O)[C@]1(C)CC[C@]2(C)CC[C@]3(C)C4=CC=C5C(=CC(=O)C(O)=C5C)[C@]4(C)CC[C@@]3(C)C2C1` (stereo partly specified), the pIC50 at Monoglyceride lipase [11] is 7.03.

Turning to `O=C(N1CCN(C(c2ccccc2)c2ccccc2)CC1)n1ccnc1`, the pIC50 at Monoglyceride lipase [13] is 5.59; against Monoglyceride lipase [14], 5.32.

`O=C(NCCCCCCn1nnc(-c2cccc(Cl)c2)n1)Oc1ccccc1` gave a pIC50 in [10] of 6.70.

For `O=C(Oc1ccc([N+](=O)[O-])cc1)N1CCN(C(c2ccc(F)cc2)c2ccc(F)cc2)CC1`, the pIC50 is 6.55 at Monoglyceride lipase [13] and 5.74 at Monoglyceride lipase [14].

With `CCCCCCCCCCC(=O)N[C@H]1CNC1=O`, in series [1] (hek293), the pIC50 was 7.00.

Consider `O=C(CCCCCCCc1ccccc1)c1nc2ncccc2o1`, for which the pKi in series [12] is 9.41.

In turn, `O=C(NCCCCCCCn1nnc(-c2cccc(Cl)c2)n1)Oc1cccnc1` showed a negative-log IC50 (pIC50) in [10] of 8.28.

`CN(Cc1cccc(-c2ccncc2)c1)C(=O)OC(C(F)(F)F)C(F)(F)F`: the pIC50 against Monoglyceride lipase [4] was 6.41.

On to `O=C(CCCCCCCCc1ccccc1)c1nc2ncccc2o1`, for which the negative-log Ki (pKi) in [12] was 9.28.

The molecule `O=C(NC1CCCCC1)OCc1cn(-c2ccccc2)nn1` gave a pIC50 in series [15] of 6.42.

Turning to `O=C(NCCCCCCn1nnc(-c2ccccc2)n1)Oc1cccnc1`, the pIC50 in series [10] was 7.96.

For the molecule `O=C(NC1CCCCC1)OCc1cn(Cc2ccccc2)nn1`, the negative logarithm of the IC50 (pIC50) in series [15] is 7.58.

With `CCCCCCCCCC(=O)c1nc2ncccc2o1`, the pKi in [12] is 9.12.

`CC(C)(C)[C@@H]1OC(=O)[C@@H]1NC(=O)OCCCCCc1ccccc1`: the negative logarithm of the IC50 (pIC50) in series [1] was 6.52.

In series [15], `O=C(NC1CCCCC1)OCc1ncn(Cc2ccccc2)n1` gave a pIC50 of 4.29.

Regarding `c1ccc(SSc2ccccc2)cc1`, the pIC50 on Monoglyceride lipase [9] is 5.80.

In turn, `O=C(NCCCCCCCn1nnc(-c2ccccc2)n1)Oc1ccccc1` had a pIC50 in series [10] of 7.09.

Regarding `CCCCCCCCn1sccc1=O`, the pIC50 at Monoglyceride lipase [7] was 7.06.

For the molecule `O=C(N1CCC(=C(c2ccc3c(c2)OCO3)c2ccc3c(c2)OCO3)CC1)n1cncn1`, the pIC50 on Monoglyceride lipase [13] is 9.72; against Monoglyceride lipase [14] it was 9.57.

As for `O=C(N1CCN(C(c2ccc(F)cc2)c2ccc(F)cc2)CC1)n1cncn1`, the negative-log IC50 (pIC50) against Monoglyceride lipase [13] was 9.66; against Monoglyceride lipase [14], 8.96.

In the case of `O=C(N1CCN(C(c2ccccc2)c2ccccc2)CC1)n1cncn1`, the values for the pIC50 at Monoglyceride lipase [13] and against Monoglyceride lipase [14] were 9.51 and 9.23, respectively.

As to `COc1ccc(Cn2cc(CNC(=O)OCc3cn(Cc4cccc(OC)c4)nn3)nn2)cc1`, the negative-log IC50 (pIC50) in series [15] is 8.24.
